Data set [1] addresses T1, Glutamate, Metabotropic, mGlu5 (Homo sapiens, UniProt P41594).
T1 construct: purchased Eurofins Panlabs Discovery Services Taiwan, Ltd
Kind of data set: Off-target 237000. Format: binding. The procedure: (§1) The potential off-target activity of 10 µM (OEG2)2-IP4 was assessed against a panel of 87 enzymes, receptors, or ion channels that are used in standard safety pharmacology screens.
(§2) 3.2. Off-target screening assay
(§3) The experiments were conducted by a contract research organization (Eurofins Panlabs Discovery Services Taiwan, Ltd.) and details on the respective assays can be retrieved via the catalog number provided in Supplementary Table 11 from the company’s webpage
(§4) (https://www.eurofinsdiscoveryservices.com/). […]
(§5) At sacrifice the left tibia of animals of the rat model with dietary adenine/high-phosphate-induced uremia and VC was collected, fixed with 70% v/v EtOH and embedded in methyl methacrylate. The trabecular bone compartment is known to be the most metabolic active i.e. actively re-structured bone compartment in CKD. Therefore, histomorphometric and micro-computed tomography (µCT) analysis of bone was performed on the trabecular compartment. Tibial sections were Goldner-stained for histomorphometric analysis of the proximal metaphysis using the AxioVision Release 4.5 software, as […]
(§6) described previously5. […]

Data set [2] can be described thus: PK s.c. in healthy and adenine/high-phosphate-diet (uremic) rats. In kind it is in vivo. To be noted: male, Sprague-Dawley, rat, sc; for AUC(0-t): read-out: AUC0-360 (converted). The procedure: For many drugs, the PK profile depends on the patient’s renal status. Therefore, (OEG2)2-IP4 PK profile was also determined in an adenine and high-phosphate-diet-induced rat model of uremia, in which the compound was administered after serum creatinine levels had increased by fourfold relative to baseline (Fig. 4g, h). […] Similar results were observed following s.c. administration (Supplementary Table 5).
To study PK in uremic animals, male Sprague-Dawley rats (Charles River Laboratories, L’Arbresle, France) were housed two per cage with free access to water and standard chow (rat/mouse maintenance diet, SSNIFF Spezialdiäten GmbH, Soest, Germany) and submitted to a 12-h light/dark cycle. Animals were fed a low-protein (2.5%) diet containing high phosphorus (1.3% phosphorus and 0.7% calcium) and 0.3% adenine to induce uremia (SSNIFF Spezialdiäten GmbH). Control animals were fed same diet but without adenine. Every 10 days, a sample of blood was punctured at the tail vein of each animal. Serum and urine creatinine, calcium, and phosphorus were then assessed using standard colorimetric biochemistry analysis (Cobas Mira, Roche, Basel, Switzerland). When a fourfold increase of creatinine was observed compared to control, the rat was considered uremic and suitable for PK experiments. The method was validated using eight animals on control- and adenine-supplemented diet respectively. For PK studies, on the morning of the experimental day, a catheter was inserted in the right carotid artery under halothane anesthesia. Subsequently, rats were allowed to recover for 3 h and uremic and non-uremic rats, respectively, were assigned to three groups of six rats each. […] Blood aliquots were drawn after drug administration, centrifuged, decanted, and stored at −80 °C until serum drug quantification by LC-MS, as well as analysis of serum creatinine, calcium, and phosphorus (Cobas Mira).
The bioanalytical method for (OEG2)2-IP4 in rat plasma was further optimized, qualified, and applied to the comparative PK study in adenine and high-phosphate diet-induced VC vs. vitamin D-induced VC animals. The LC-MS/MS analyses were carried out using a Dionex Ultimate RSLC ultra-high-pressure liquid chromatography (UHPLC) system (Thermo Fisher Scientific) coupled with a TSQ Quantiva^TM triple quadrupole mass spectrometer. The samples were stored at 5 °C in the autosampler prior to and during the analyses. […] Gradient elution (solvent A, 20 mM ammonium acetate in water (pH 5); solvent B, ACN) was used according to the program reported in Supplementary Table 18. The injection volume was 10 µL. MS/MS parameters (MRM acquisition, cycle time 0.2 s) for (OEG2)2-IP4 are reported in Supplementary Table 19 and the ESI source, working in negative ionization mode, applied the following parameters: static spray voltage 3000 V ion transfer tube and vaporizer temperatures at 400 and 100 °C, respectively; sheath and auxiliary gas (nitrogen) flow rates at 80 and 3 (arbitrary units). For the quantitative determination in rat plasma, product ion m/z 158.9 was selected because it provided the best sensitivity and selectivity. Calibration curve and quality control samples were prepared by adding 2 μL of working solution to 38 μL rat blank K3EDTA plasma (Biochemed, Winchester, VA) and precipitating plasma protein by addition of 120 μL of MeOH including internal standard OEG11-IP5. Samples were vortexed 1 min and centrifuged at (22,000 × g, 4 °C, 10 min). Supernatants (90 μL) were then transferred into a glass vial with insert and injected onto LC-MS/MS system. Both in adenine and high-phosphate diet-induced VC and vitamin D-induced VC rat PK samples were prepared for analysis in an analogous manner as done for spiked samples (assay volume 40 μL). The LLOQ and LOD in rat plasma for (OEG2)2-IP4 were 50 and 10 ng/mL, respectively. The ULOQ and detection was 50,000 ng/mL.

The subject of data set [3] is Glycine, Strychnine-Sensitive. Kind of data set: Off-target 239000. In kind it is binding, Rat. To be noted: 10 µM.
In another data set the test system is Glutamate, AMPA. As to the kind of experiment: Off-target 232600. In kind it is binding, Rat. To be noted: 10 µM. As for the experimental part: as §1, §2, §3, §4, §5, §6
The target of data set [4] is T2, (Homo sapiens, UniProt P25100).
T2 construct: purchased Eurofins Panlabs Discovery Services Taiwan, Ltd
T2 sequence (P25100 whole entry): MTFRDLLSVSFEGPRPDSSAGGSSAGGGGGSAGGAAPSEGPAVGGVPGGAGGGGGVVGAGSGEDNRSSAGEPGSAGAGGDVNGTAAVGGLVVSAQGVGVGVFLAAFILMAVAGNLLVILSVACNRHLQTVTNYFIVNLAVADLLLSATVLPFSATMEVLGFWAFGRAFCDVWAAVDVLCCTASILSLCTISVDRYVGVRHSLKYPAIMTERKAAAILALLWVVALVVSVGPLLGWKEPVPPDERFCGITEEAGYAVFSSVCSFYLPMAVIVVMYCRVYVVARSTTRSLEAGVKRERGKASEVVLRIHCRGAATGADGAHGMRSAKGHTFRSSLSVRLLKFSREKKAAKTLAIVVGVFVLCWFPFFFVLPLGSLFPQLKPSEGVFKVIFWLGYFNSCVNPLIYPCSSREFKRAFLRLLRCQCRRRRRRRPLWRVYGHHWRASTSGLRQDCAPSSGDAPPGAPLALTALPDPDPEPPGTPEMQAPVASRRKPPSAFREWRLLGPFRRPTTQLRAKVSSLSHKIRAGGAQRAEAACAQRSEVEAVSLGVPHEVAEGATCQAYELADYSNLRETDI
As to the kind of experiment: Off-target 203400. In kind it is binding. The procedure:
as §1, §2, §3, §4, §5, §6

For a further data set, the target named is T3, Cannabinoid CB2 (Homo sapiens, UniProt P34972).
T3 construct: purchased Eurofins Panlabs Discovery Services Taiwan, Ltd
T3 sequence (P34972 whole entry): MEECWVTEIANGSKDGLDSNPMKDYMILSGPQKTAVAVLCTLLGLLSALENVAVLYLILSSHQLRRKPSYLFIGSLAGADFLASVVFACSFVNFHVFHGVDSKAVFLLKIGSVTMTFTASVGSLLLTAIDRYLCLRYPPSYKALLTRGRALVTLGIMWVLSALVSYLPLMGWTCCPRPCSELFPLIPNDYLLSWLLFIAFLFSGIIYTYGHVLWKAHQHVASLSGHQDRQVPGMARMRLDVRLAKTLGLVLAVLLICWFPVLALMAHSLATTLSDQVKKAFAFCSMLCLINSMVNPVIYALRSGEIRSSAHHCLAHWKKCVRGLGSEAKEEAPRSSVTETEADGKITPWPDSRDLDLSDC
Kind of data set: Off-target 217100. Format: binding. As for the experimental part: as §1, §2, §3, §4, §5, §6

The next data set has as its target T4, Estrogen ERα (Homo sapiens, UniProt P03372).
T4 construct: purchased Eurofins Panlabs Discovery Services Taiwan, Ltd
As to the kind of experiment: Off-target 226010. Format: binding. The procedure: as §1, §2, §3, §4, §5, §6

A further data set deals with T5, Dopamine D1 (Homo sapiens, UniProt P21728).
T5 construct: purchased Eurofins Panlabs Discovery Services Taiwan, Ltd
T5 sequence (P21728 whole entry): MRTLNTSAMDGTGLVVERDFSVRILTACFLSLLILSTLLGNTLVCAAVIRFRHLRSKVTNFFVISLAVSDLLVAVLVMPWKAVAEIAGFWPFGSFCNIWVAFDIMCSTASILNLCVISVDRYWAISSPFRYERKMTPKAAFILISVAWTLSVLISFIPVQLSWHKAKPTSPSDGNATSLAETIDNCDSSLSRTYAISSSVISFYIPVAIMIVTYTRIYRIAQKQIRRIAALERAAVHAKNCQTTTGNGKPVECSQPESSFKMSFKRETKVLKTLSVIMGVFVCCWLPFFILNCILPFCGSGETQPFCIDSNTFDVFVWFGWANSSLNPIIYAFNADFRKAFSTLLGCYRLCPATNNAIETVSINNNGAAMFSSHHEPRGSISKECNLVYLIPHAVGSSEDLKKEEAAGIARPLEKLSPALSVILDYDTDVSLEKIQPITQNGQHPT
As to the kind of experiment: Off-target 219500 (D1). Format: binding. The procedure: as §1, §2
(§7) The experiments were conducted by a contract research organization (Eurofins Panlabs Discovery
(§8) Services Taiwan, Ltd.) and details on the respective assays can be retrieved via the catalog number
(§9) provided in Supplementary Table 11 from the company’s webpage
as §4

The next data set addresses T6, Adenosine A2A (Homo sapiens, UniProt P29274).
T6 construct: purchased Eurofins Panlabs Discovery Services Taiwan, Ltd
As to the kind of experiment: Off-target 200610. In kind it is binding. As for the experimental part: as §1, §2, §3, §4, §5, §6

Another data set deals with T7, Cyclooxygenase COX-1 (Homo sapiens, UniProt P23219).
T7 construct: purchased Eurofins Panlabs Discovery Services Taiwan, Ltd
T7 sequence (P23219 24-599): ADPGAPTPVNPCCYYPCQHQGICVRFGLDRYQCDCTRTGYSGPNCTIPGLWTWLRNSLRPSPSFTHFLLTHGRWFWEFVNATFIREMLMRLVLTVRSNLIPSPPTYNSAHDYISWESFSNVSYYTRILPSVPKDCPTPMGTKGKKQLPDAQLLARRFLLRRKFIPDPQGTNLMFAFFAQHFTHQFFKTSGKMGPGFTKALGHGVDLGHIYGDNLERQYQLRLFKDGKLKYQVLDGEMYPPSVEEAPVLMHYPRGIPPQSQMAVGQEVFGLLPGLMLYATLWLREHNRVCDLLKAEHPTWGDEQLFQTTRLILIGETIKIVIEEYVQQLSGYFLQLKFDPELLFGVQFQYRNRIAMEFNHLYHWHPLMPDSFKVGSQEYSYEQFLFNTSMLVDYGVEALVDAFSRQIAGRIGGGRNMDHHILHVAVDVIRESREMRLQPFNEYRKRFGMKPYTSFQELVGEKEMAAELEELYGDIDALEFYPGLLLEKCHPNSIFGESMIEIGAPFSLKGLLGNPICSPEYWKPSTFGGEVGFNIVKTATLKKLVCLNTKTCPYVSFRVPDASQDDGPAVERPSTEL
As to the kind of experiment: Off-target 116020. Format: biochemical. The procedure:
as §1, §2, §7, §8, §9, §4

The subject of the next data set is Nicotinic Acetylcholine. Kind of data set: Off-target 258590. In kind it is binding, Human. To be noted: 10 µM. As for the experimental part:
as §1, §2, §3, §4, §5, §6

Data set [5] has as its target T8, (Rattus norvegicus, UniProt P43140).
T8 construct: purchased Eurofins Panlabs Discovery Services Taiwan, Ltd
As to the kind of experiment: Off-target 203100. Format: binding. As for the experimental part: as §1, §2, §7, §8, §9, §4

The subject of data set [6] is Calcium Channel L-Type, Benzothiazepine. Kind of data set: Off-target 214510. To be noted: 10 µM. Format: binding, Rat. As for the experimental part: as §1, §2, §3, §4, §5, §6
In a further data set the test system is Androgen (Testosterone). As to the kind of experiment: Off-target 206000. Format: binding, Human. To be noted: 10 µM. The procedure:
as §1, §2, §7, §8, §9, §4

[7] abbreviates: serum, 10 mg/kg, 10 mg/kg s.c., Healthy.
Setting [8] is: serum, 10 mg/kg, 10 mg/kg s.c., Uremic.

Like-named read-outs stand apart in the source and are kept apart here.

T8 sequence (P43140 whole entry): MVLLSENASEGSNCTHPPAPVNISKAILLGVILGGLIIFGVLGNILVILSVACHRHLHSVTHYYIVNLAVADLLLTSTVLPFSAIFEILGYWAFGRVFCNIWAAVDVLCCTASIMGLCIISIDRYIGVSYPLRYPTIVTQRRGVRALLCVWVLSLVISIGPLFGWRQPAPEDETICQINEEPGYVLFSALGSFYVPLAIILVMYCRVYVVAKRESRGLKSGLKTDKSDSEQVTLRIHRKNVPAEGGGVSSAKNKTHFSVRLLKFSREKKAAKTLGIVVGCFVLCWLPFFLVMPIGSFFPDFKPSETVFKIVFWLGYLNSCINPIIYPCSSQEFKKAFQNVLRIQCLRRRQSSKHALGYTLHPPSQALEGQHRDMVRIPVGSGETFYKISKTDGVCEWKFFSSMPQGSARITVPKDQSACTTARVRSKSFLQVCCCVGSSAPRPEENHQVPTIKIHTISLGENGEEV
T1 sequence (P41594 21-1212): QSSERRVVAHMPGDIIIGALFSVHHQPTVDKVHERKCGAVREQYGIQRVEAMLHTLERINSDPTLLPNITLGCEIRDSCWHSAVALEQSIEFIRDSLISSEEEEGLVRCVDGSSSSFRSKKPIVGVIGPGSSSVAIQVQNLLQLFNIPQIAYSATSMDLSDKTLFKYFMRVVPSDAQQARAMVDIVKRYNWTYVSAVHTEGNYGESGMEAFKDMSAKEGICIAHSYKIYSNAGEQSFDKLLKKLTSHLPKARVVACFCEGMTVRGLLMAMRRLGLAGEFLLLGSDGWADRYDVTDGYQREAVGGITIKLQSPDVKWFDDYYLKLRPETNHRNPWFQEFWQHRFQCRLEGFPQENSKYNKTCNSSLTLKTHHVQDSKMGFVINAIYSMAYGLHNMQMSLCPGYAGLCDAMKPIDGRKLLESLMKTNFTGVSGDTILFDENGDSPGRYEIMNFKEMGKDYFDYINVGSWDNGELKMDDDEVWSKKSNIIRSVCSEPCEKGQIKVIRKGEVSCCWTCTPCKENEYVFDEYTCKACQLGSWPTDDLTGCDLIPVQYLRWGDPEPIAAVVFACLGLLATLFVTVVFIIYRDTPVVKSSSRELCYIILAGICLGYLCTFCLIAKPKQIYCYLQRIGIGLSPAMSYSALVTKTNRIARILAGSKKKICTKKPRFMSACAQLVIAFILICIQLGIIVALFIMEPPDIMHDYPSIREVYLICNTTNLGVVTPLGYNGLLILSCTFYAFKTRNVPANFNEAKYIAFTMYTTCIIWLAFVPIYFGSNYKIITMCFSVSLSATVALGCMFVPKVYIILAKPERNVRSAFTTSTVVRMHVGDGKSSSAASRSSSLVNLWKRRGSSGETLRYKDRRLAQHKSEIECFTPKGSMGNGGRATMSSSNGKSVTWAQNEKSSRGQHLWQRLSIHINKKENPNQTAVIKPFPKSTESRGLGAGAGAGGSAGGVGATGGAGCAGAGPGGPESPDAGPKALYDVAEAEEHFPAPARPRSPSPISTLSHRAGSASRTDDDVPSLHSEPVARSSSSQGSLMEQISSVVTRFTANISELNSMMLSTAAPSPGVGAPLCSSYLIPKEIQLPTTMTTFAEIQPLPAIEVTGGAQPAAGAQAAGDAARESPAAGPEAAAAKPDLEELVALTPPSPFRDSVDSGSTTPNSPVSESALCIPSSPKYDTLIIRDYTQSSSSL
T4 sequence (P03372 whole entry): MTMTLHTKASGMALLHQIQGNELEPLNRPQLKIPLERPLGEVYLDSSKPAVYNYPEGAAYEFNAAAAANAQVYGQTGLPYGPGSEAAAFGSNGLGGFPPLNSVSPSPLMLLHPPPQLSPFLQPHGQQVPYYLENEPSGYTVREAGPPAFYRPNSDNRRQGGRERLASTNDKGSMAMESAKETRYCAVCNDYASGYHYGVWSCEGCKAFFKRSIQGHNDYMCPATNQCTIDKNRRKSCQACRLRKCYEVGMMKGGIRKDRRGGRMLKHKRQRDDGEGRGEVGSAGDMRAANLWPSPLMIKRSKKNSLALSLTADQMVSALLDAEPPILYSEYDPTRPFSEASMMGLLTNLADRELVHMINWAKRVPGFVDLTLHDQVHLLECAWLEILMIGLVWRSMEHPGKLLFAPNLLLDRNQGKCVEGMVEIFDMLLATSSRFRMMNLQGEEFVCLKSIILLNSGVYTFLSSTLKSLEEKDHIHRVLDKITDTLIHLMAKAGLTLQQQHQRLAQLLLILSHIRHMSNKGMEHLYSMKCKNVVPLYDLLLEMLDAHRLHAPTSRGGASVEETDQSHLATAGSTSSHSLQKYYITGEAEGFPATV
T6 sequence (P29274 whole entry): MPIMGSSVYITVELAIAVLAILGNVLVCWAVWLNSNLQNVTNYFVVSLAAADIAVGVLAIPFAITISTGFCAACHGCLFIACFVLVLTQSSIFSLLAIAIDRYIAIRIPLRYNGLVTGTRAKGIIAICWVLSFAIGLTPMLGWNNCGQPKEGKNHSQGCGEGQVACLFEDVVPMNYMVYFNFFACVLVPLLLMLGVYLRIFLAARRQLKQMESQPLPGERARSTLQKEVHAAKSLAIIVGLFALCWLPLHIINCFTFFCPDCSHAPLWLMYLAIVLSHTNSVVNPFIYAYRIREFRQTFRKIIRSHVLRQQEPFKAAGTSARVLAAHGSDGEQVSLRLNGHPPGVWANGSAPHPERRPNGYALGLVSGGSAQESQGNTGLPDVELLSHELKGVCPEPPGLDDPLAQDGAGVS

Turning to `COCCOCCO[C@@H]1[C@@H](OP(=O)(O)O)[C@H](OCCOCCOC)[C@@H](OP(=O)(O)O)[C@@H](OP(=O)(O)O)[C@H]1OP(=O)(O)O` [(OEG2)2-IP4, 4,6-Di-O-(methoxy-diethyleneglycol)-myo-inositol-1,2,3,5-tetrakis(phosphate)], the inhibition at 10 µM in data set [1] was 24%; in data set [4], 10%; at Cannabinoid CB2 it was 12%; against Estrogen ERα it was -1%; against Dopamine D1, -1%; against Adenosine A2A it was 5%. In addition, the inhibition at 10 µM at Cyclooxygenase COX-1 was -2%; in data set [5], 1%. The concentration at 3 h in data set [2] (plasma, 10 mg/kg, Healthy, s.c., Time 3 h, individual rats, read-out: plasma concentration (Figure 4h)) is 2.57 µM. Besides, the AUC(0-inf) in data set [2] (setting [7]) was 19.7 µM·h; in data set [2] (setting [8]), 37.9 µM·h. Moreover, the mean residence time MRT in data set [2] (setting [7]) was 1.1 h; in data set [2] (setting [8]), 2.07 h. Besides, the half-life is 1.32 ± 0.45 h in [2] (setting [7]) and 2.05 ± 1.07 h in data set [2] (setting [8]). The figures for the AUC(0-t) in [2] (setting [7]) and in [2] (setting [8]) were 19.2 µM·h and 31.8 µM·h, respectively. Besides, the Cmax in [2] (serum, 10 mg/kg s.c., Healthy) was found to be 12 ± 4 µM. The “% Inhibition” value in [3] is on record as -2%; with Glutamate, AMPA, 8%; in the data set on Nicotinic Acetylcholine, -5%; in data set [6], -7%; in the data set on Androgen (Testosterone) it was 12%.

The inhibition is the drop in the measured response relative to a control, in per cent. As a reminder, the AUC(0-inf) is total exposure, with the tail of the curve extrapolated. High values mean more exposure, low ones less exposure. For orientation: MRT means a mean duration of stay, worked out from the concentration-time curve. The half-life is the time in which the quantity being followed falls by half. A high value points to slow loss. Broadly, the Cmax is the peak of the concentration-time curve. By % Inhibition is commonly meant the change of the read-out against control, counted positive when it falls.

Source of the values: publication PMC7002685, “Inhibition of vascular calcification by inositol phosphates derivatized with ethylene glycol oligomers” (Nature Communications, 2020).
